Experimental data as given in patent US11723890B2, “Methods of treatment using an mTORC1 modulator” (Navitor Pharmaceuticals, Inc., priority 2019, dated 2023).

Legend:
cynomolgus monkey [1] = assay: Single oral dose toxicology study in cynomolgus monkey; type: in vivo
Protocol: Nonclinical toxicology studies have been performed with compound A in the rat and cynomolgus monkey. Adverse effects were not observed after single oral doses of up to 500 mg/kg in rat and up to 2000 mg/kg in cynomolgus monkey.

[2] = tested on: BDNF and BDNF receptor (NTRK2); assay: Example 2: CSF BDNF and BDNF receptor (NTRK2) fragment levels; type: in vivo, human; settings: healthy males; single oral 2400 mg; FIGS. 9 and 10
Excerpt: Exploratory Objective(s): The exploratory objectives of this study were as follows using CSF and plasma samples collected over the same time frame as the PK samples: • conducted unbiased metabolomic analysis using validated methods as described: https://www.metabolon.com/what-we-do/our-technology. • conducted unbiased proteomic analysis using validated methods as described: https://www.biognosys.com/technology. Study Endpoints:
Pharmacokinetic, Metabolomic, and Proteomic Variables: Blood and CSF samples for the PK, metabolomics, and proteomic analysis of compound A were collected at various time points and were processed and analyzed by a validated method for determining concentrations of compound A.

[3] = tested on: rodent models of stress-induced depressive behavior; assay: Preclinical rodent models of stress-induced depressive behavior; type: in vivo; settings: head-to-head with ketamine
Excerpt: (§1) Compound A [(S)-2-amino-5,5-difluoro-4,4-dimethylpentanoic acid] is a novel, orally bioavailable, specific, small molecule that activates mTORC1 pathway signaling in the brain, including those centers responsible for mood.

[4] = 14-day Q3D oral toxicology study in rats; type: in vivo, rat; settings: rat, in vivo
Protocol: (§2) In rats administered 160, 500, or 1000 mg/kg PO every 3 days (Q3D) for 14 days (5 doses total), the no-observed-adverse-effect level (NOAEL) was 160 mg/kg.
(§3) Factors Influencing Starting and Stopping Dose for compound A: The proposed starting dose of compound A (150 mg) was based on considering the NOAEL dose of compound A in the most sensitive species (160 mg/kg dosed Q3D for 14 days in rat), determining the human equivalent dose (HED) based on the body surface area difference between the two species (˜26 mg/kg, or ˜1560 mg for a 60 kg human), followed by applying a safety factor of 10 to yield the maximum recommended starting dose (MRSD). Based on the above considerations, the starting dose of compound A in the present study was 150 mg. Based on an integrated assessment of nonclinical findings with compound A, the planned maximum dose for compound A in the first-time-in-humans (FTIH) study was 2400 mg. Extrapolated on the basis of body surface area, the 2400 mg dose is equivalent to 247 mg/kg in rats and 123 mg/kg in monkeys. […] At 160 mg/kg in monkeys, the only effect was a slight decrease in heart rate (approximately 18%, or approximately 30 beats per minute, compared with vehicle).
(§4) In addition, the present clinical study included frequent clinical laboratory tests.

rat = assay: 14-day Q3D oral toxicology study in rats; type: in vivo
Protocol: as §2, §3, §4

healthy volunteers = assay: Example 4: blinded multiple ascending dose safety and tolerability study; type: in vivo, human; settings: Cohort 1 (800 mg) and Cohort 2 (1600 mg) once daily for 7 days, compound A or placebo (6:2), preliminary
Protocol: Navitor Pharmaceuticals, Inc. (Navitor) is currently conducting a study to assess the safety, tolerability, and PK of multiple ascending doses of compound A (400 mg, 800 mg, 1600 mg, 2400 mg, and potentially 3000 mg) versus matched placebo in healthy volunteers. This study also includes an assessment of CSF and clinical biomarkers, as well as a cognition test.
The study is planned for 4 cohorts and 1 additional optional cohort. Up to approximately 40 healthy volunteers will be randomly assigned to double-blind treatment. In the initial 4 cohorts, eight (8) subjects will be randomized (3:1; compound A:placebo) in each of the four dosage-level cohorts (800 mg, 1600 mg, 2400 mg, and 400 mg) administered as an oral solution. Within each cohort, six subjects will be randomized to receive compound A and two subjects will be randomized to receive placebo. Each subject randomized will receive compound A or placebo once daily for 7 days. Subjects will dose in the morning and will dose each day at the same time. For cohort 3 (2400 mg), each subject will return to the unit after a minimum 5-day washout to receive an additional single dose of compound A or placebo under fed conditions in Period 2. Assessments of safety, tolerability, and PK as well as exploratory biomarker and clinical measures will occur.
Cohort 1 (800 mg) and Cohort 2 (1600 mg) have been completed. […]

mTORC1 = mTORC1 downstream signaling and synaptic changes in medial pre-frontal cortex of rats; type: in vivo, rat; settings: layer V pyramidal neurons
Excerpt: as §1

cynomolgus monkey [5] = assay: Cardiovascular study in cynomolgus monkeys; type: in vivo
[6] = Example 1 Part A: single ascending dose plasma pharmacokinetics; type: in vivo, human
Protocol: The in-house period was 6 days/5 nights.
Frequent PK sampling was included in the study to evaluate single-dose PK. Part B of the study included assessments designed to assess preliminary efficacy.
Single ascending doses of compound A were assessed in healthy adult males and females in Part A of a two-part, randomized, double-blind, placebo-controlled, first-in-humans Study (see Example 1, Part A).

CC(C)(C[C@H](N)C(=O)O)C(F)F [Compound A, (S)-2-amino-5,5-difluoro-4,4-dimethylpentanoic acid]
single oral dose up to which adverse effects were not observed (cynomolgus monkey [1]): up to 2000 mg/kg | CSF BDNF and BDNF receptor (NTRK2) fragment levels [2]: rapid release of BDNF and receptor degradation | adverse effects in rodent models [3]: without producing significant adverse effects | antidepressant effects [3]: rapid antidepressant effects comparable to those of ketamine | human equivalent dose of rat NOAEL at 14 days ([4]; oral, 160 mg/kg, based on body surface area difference, read-out: human equivalent dose (HED) of rat NOAEL): ~26 mg/kg | NOAEL at 14 days ([4]; rats, 160, 500 or 1000 mg/kg PO Q3D for 14 days (5 doses), read-out: no-observed-adverse-effect level (NOAEL)): 160 mg/kg | human equivalent dose (HED) of rat NOAEL for a 60 kg human (rat; based on body surface area difference, 60 kg human): ~1560 mg | other findings, not considered adverse (rat; rat, in vivo, po): slightly decreased lymphocyte, monocyte, and neutrophil counts | findings at high doses (rat; rat, in vivo, po, 500 mg/kg): lymphoid atrophy and decreased leucocyte counts | adverse effects at 1000 mg/kg (rat; rat, in vivo, po, 1000 mg/kg): regenerative anemia in one male, considered likely an episode of gastrointestinal (GI) bleeding, and hepatocellular injury in one male | labs, vital signs or ECG (healthy volunteers): No clinically significant abnormalities were observed | severity of AEs (healthy volunteers): mild | mTORC1 downstream signaling, synaptic protein expression, synaptic arborization (mTORC1): increase in mTORC1 downstream signaling, synaptic protein expression (e.g., GluR1 and synapsin), and synaptic arborization | cardiovascular findings at ≥160 mg/kg (cynomolgus monkey [5]; single oral dose ≥160 mg/kg): decreased heart rate and body temperature | cardiovascular finding at higher dosage levels (cynomolgus monkey [5]; single oral dose ≥500 mg/kg): Increased blood pressure | CL/F and Vz/F estimates versus dose ([6]; 150 mg to 2400 mg): increased with dose | dose proportionality of Cmax and AUC∞ ([6]; 150 mg to 2400 mg): slightly less than dose-proportional | Tmax ([6]; both sexes, human, healthy volunteers, single oral 150-2400 mg, range among cohorts, post dose, read-out: Median Tmax): 0.5 to 1.5 h | half-life ([6]; both sexes, human, healthy volunteers, single oral 150-2400 mg, range among cohorts, read-out: terminal elimination half-life): 12.7 to 15.9 h
